Where two headings read alike, the source gives them in different places.
Legend:
H2126 = assay: Cell viability assay; format: cell-based; conditions: Homo sapiens, NCI-H2126, 24 h; H2126 (Lung); read-out: AZD5991 24h GI50
MOLM13 = assay: Cell viability assay; format: cell-based; conditions: Homo sapiens, MOLM-13, 24 h; MOLM13 (AML); read-out: AZD5991 24h GI50
HCC1187 = assay: Cell viability assay; format: cell-based; conditions: Homo sapiens, 24 h; HCC1187 (Breast); read-out: AZD5991 24h GI50
Namalwa = assay: Cell viability assay; format: cell-based; conditions: 24 h; Namalwa (NHL); read-out: AZD5991 24h GI50
H358 = assay: Cell viability assay; format: cell-based; conditions: Homo sapiens, NCI-H358, 24 h; H358 (Lung); read-out: AZD5991 24h GI50
MV411 = assay: Cell viability assay; format: cell-based; conditions: Homo sapiens, MV4-11, 24 h; MV411 (AML); read-out: AZD5991 24h GI50
OPM2 = assay: Cell viability assay; format: cell-based; conditions: Homo sapiens, OPM-2, 24 h; OPM2 (MM); read-out: AZD5991 24h GI50
NB4 = assay: Caspase-3/7 activation assay; format: cell-based; conditions: Homo sapiens, NB-4, 6 h
NCI-H929 tumors = assay: NCI-H929 subcutaneous xenograft efficacy; format: in vivo, mice; conditions: single i.v. dose 100 mg kg^−1
Protocol: Female C.B.-17 SCID mice and female nude rats were purchased from Charles River Laboratories. […]. All xenograft studies were conducted at our Association for the Assessment and Accreditation of Laboratory Animal Care accredited facility in Waltham, MA in accordance with ethical regulations described in the guidelines established by the internal Institutional Animal Care and Use Committee. […]. In mice, drugs were dosed intravenously in a volume of 5 mL kg^-1 except for venetoclax that was dosed orally in a volume of 10 mL kg^-1. […]. Ten million MV4-11 cells were injected subcutaneously in the right flank of rats in a volume of 0.1 mL. Tumor volumes (measured by caliper), animal body weight, and tumor condition were recorded twice weekly for the duration of the study. The tumor volume was calculated using the formula: length (mm) × width (mm)^2/0.52. For efficacy studies, growth inhibition from the start of treatment was assessed by comparison of the differences in tumor volume between control and treated groups. Statistical significance was evaluated using non-parametric, unpaired, two-tailed t-test. […] For pharmacokinetic analysis, plasma samples were precipitated and diluted with acetonitrile containing internal standard and analyzed by LC–MS/MS versus a calibration curve of known concentrations.

DU145 [1] = assay: Cell viability assay; format: cell-based; conditions: Homo sapiens, DU-145, 24 h; DU145 (Urology); read-out: AZD5991 24h GI50
OVCAR3 = assay: cells; conditions: Homo sapiens, OVCAR-3, 6 h, read-out: AZD5991 6h EC50
Protocol: (§1) Cells were plated at 3000 cells/well in 384-well white plates in corresponding cell growth media. […] Caspase-3/7 activation was subsequently determined using a Caspase-Glo 3/7 Reagent (Promega) and viability was assayed using the CellTiter-Glo Reagent (Promega) as described in manufacturer’s instructions. Dose–response curves for caspase-3/7 activation and viability were plotted and analyzed (including EC50 and GI50 determination) using GraphPad Prism. Percentage of caspase activation was calculated against the maximum caspase activation value (100%) obtained with a proprietary cell kill control.

G361 = assay: cells; conditions: Homo sapiens, G-361, 6 h, read-out: AZD5991 6h EC50
Protocol: as §1

WM2664 = assay: cells; conditions: Homo sapiens, WM 266-4, 6 h, read-out: AZD5991 6h EC50
Protocol: as §1

JEKO1 = assay: cells; conditions: Homo sapiens, JeKo-1, 6 h, read-out: AZD5991 6h EC50
Protocol: as §1

DU145 [2] = assay: cells; conditions: Homo sapiens, DU-145, 6 h, read-out: AZD5991 6h EC50
Protocol: as §1

OCILY1 = assay: cells; conditions: Homo sapiens, OCI-Ly1, 6 h, read-out: AZD5991 6h EC50
Protocol: as §1

KG1a = assay: Cell viability assay; format: cell-based; conditions: Homo sapiens, KG-1a, 24 h; KG1a (AML); read-out: AZD5991 24h GI50
H1975 = assay: Cell viability assay; format: cell-based; conditions: Homo sapiens, NCI-H1975, 24 h; H1975 (Lung); read-out: AZD5991 24h GI50
H1395 = assay: Cell viability assay; format: cell-based; conditions: Homo sapiens, NCI-H1395, 24 h; H1395 (Lung); read-out: AZD5991 24h GI50
T47D = assay: Cell viability assay; format: cell-based; conditions: Homo sapiens, 24 h; T47D (Breast); read-out: AZD5991 24h GI50
SKBR3 = assay: Cell viability assay; format: cell-based; conditions: Homo sapiens, SK-BR-3, 24 h; SKBR3 (Breast); read-out: AZD5991 24h GI50
RT4 = assay: Cell viability assay; format: cell-based; conditions: Homo sapiens, RT-4, 24 h; RT4 (Urology); read-out: AZD5991 24h GI50
EJM = assay: Cell viability assay; format: cell-based; conditions: Homo sapiens, 24 h; EJM (MM); read-out: AZD5991 24h GI50
EOL1 = assay: Cell viability assay; format: cell-based; conditions: Homo sapiens, 24 h; EOL1 (AML); read-out: AZD5991 24h GI50

With `Cc1c2c(nn1C)CSCc1cc(n(C)n1)CSc1cc(c3ccccc3c1)OCCCc1c(C(=O)O)n(C)c3c-2c(Cl)ccc13` (atropisomer, axis not shown; (Ra)) [(Ra)-7] the GI50 (H2126) was 320 nM, the GI50 (MOLM13) was 42 nM and the GI50 (HCC1187) was 233 nM. It also gave a GI50 (Namalwa) of 39 nM, a GI50 (H358) of 4240 nM and a GI50 (MV411) of 13 nM. It also gave a GI50 (OPM2) of 57 nM, an EC50 (NB4; read-out: 6h caspase EC50, NB4, single agent) of 201 nM and an EC50 (NB4; read-out: AZD5991 6h EC50, NB4 (AML), caspase 3/7 activation) of 347 nM. The “mice with complete tumor regression” value (NCI-H929 tumors) was “four out of four”, the GI50 (DU145 [1]) was 26800 nM and the EC50 (OVCAR3) was greater than 30000 nM. The EC50 (G361) was 2440 nM, the EC50 (WM2664) was greater than 30000 nM and the EC50 (JEKO1) was 512 nM. For the same compound, the EC50 (DU145 [2]) was greater than 30000 nM, the EC50 (OCILY1) was 547 nM and the GI50 (KG1a) was 1430 nM. It also gave a GI50 (H1975) of 17600 nM, a GI50 (H1395) of 12000 nM and a GI50 (T47D) greater than 30000 nM. For the same compound, the GI50 (SKBR3) was 118 nM, the GI50 (RT4) was 2400 nM and the GI50 (EJM) was 105 nM. The GI50 (EOL1) was 12 nM.

Source: paper PMC6297231 (Nature Communications, 2018)
